Test results published in US8163740B2, “6-substituted benzoxazines” (Hoffmann-La Roche Inc., priority 2008, dated 2012).

target: recombinant human 5-HT5A receptor (Homo sapiens, UniProt P47898); test: [3H]LSD radioligand binding assay; settings: [3H]LSD (approximately 1 nM); membranes from HEK-EBNA cells transiently expressing 5-HT5A; Ki by Cheng-Prussoff equation; read-out: Ki
Description: A [^3H]LSD radioligand binding assay was used to determine the affinity of the compounds for the recombinant human 5-HT5A receptor, in membranes from transiently (cDNA) expressed 5-HT5A receptors in Human Embryonic Kidney-EBNA (HEK-EBNA) cells. Assay buffer consisted of Tris (50 mM) buffer containing 1 mM EGTA, 10 mM MgCl2 (pH 7.4) and 10 μM pargyline. The binding assay was carried out in 96-well-plates in the presence of [^3H]LSD (approximately 1 nM), approximately 2 μg/well of membrane protein, and 0.5 mg of Ysi-poly-1-lysine SPA beads in a final volume of 200 μl of buffer. Non-specific binding was defined using methiothepin 2 μM. Compounds were tested at 10 concentrations. All assays were conducted in duplicate and repeated at least two times. Assay plates were incubated for 120 min at room temperature before centrifugation. Bound ligand was determined using a Packard Topcount scintillation counter. IC50 values were calculated using a non-linear curve fitting program and Ki values calculated using the Cheng-Prussoff equation.

Sequence of recombinant human 5-HT5A receptor (P47898 whole entry): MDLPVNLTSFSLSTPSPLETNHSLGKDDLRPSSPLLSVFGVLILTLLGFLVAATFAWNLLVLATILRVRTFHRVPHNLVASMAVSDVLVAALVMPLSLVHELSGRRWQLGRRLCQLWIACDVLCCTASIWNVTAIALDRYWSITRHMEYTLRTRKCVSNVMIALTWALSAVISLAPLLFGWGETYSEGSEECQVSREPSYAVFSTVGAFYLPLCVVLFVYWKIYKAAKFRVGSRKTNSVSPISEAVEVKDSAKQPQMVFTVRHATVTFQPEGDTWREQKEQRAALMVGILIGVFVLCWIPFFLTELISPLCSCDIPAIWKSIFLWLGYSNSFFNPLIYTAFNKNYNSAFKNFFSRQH

| SMILES | Ki |
| --- | --- |
| O=C(CN1CCOCC1)Nc1ccc2c(c1)COC(NC1CCc3cc(F)ccc31)=N2 (racemic) [Example 56, rac-N-[2-(5-Fluoro-indan-1-ylamino)-4H-benzo[d][1,3]oxazin-6-yl]-2-morpholin-4-yl-acetamide] | 13 nM |
| O=C(CN1CCOCC1)Nc1ccc2c(c1)COC(NCCOc1ccccc1)=N2 [Example 123, 2-Morpholin-4-yl-N-[2-(2-phenoxy-ethylamino)-4H-benzo[d][1,3]oxazin-6-yl]-acetamide] | 41.4 nM |
| COc1cccc2c1C(NC1=Nc3ccc(NS(=O)(=O)c4ccccc4)cc3CO1)CO2 (racemic) [Example 115, rac-N-[2-(4-Methoxy-2,3-dihydro-benzofuran-3-ylamino)-4H-benzo[d][1,3]oxazin-6-yl]-benzenesulfonamide] | 20.9 nM |
| CC(C)(O)CNCC(=O)Nc1ccc2c(c1)COC(N[C@@H]1CCCc3ccccc31)=N2 [Example 41, 2-(2-Hydroxy-2-methyl-propylamino)-N-{2-[(R)-(1,2,3,4-tetrahydro-naphthalen-1-yl)amino]-4H-benzo[d][1,3]oxazin-6-yl}-acetamide] | 33 nM |
| CC(C)N1C2CCC1CC(NCC(=O)Nc1ccc3c(c1)COC(N[C@@H]1CCc4ccccc41)=N3)C2 (stereo partly drawn) [Example 76, N-[2-((R)-Indan-1-ylamino)-4H-benzo[d][1,3]oxazin-6-yl]-2-((exo)-8-isopropyl-8-aza-bicyclo[3.2.1]oct-3-ylamino)-acetamide] | 13.5 nM |
| COCCNCC(=O)Nc1ccc2c(c1)COC(N[C@@H]1CCCc3ccccc31)=N2 [Example 40, 2-(2-Methoxy-ethylamino)-N-{2-[(R)-(1,2,3,4-tetrahydro-naphthalen-1-yl)amino]-4H-benzo[d][1,3]oxazin-6-yl}-acetamide] | 33 nM |
| CN(C)S(=O)(=O)Nc1ccc2c(c1)COC(N[C@@H]1CCc3ccccc31)=N2 [Example 27, N,N-(Dimethyl)-N′-{2-((R)-indan-1-ylamino)-4H-benzo[d][1,3]oxazin-6-yl}-sulfamide] | 2.36 nM |
| COc1cccc2c1C(NC1=Nc3ccc(NC(=O)CN4CCN(C)CC4)cc3CO1)CO2 (racemic) [Example 9, rac-N-[2-(4-Methoxy-2,3-dihydro-benzofuran-3-ylamino)-4H-benzo[d][1,3]oxazin-6-yl]-2-(4-methyl-piperazin-1-yl)-acetamide] | 5.69 nM |
| O=C(CN1CCN(CC(F)(F)F)CC1)Nc1ccc2c(c1)COC(N[C@@H]1CCc3ccccc31)=N2 [Example 70, N-[2-((R)-Indan-1-ylamino)-4H-benzo[d][1,3]oxazin-6-yl]-2-[4-(2,2,2-trifluoro-ethyl)-piperazin-1-yl]-acetamide] | 33 nM |
| CN1CCN(S(=O)(=O)Nc2ccc3c(c2)COC(N[C@@H]2CCc4ccccc42)=N3)CC1 [Example 72, 4-Methyl-piperazine-1-sulfonic acid [2-((R)-indan-1-ylamino)-4H-benzo[d][1,3]oxazin-6-yl]-amide] | 28.6 nM |
| CN(C)S(=O)(=O)Nc1ccc2c(c1)COC(NCCOc1ccccc1)=N2 [Example 110, N,N-(Dimethyl)-N′-{2-(2-Phenoxy-ethylamino)-4H-benzo[d][1,3]oxazin-6-yl}-sulfamide] | 24.1 nM |
| O=C(Nc1ccc2c(c1)COC(N[C@@H]1CCc3ccccc31)=N2)C1CC1 [Example 18, Cyclopropanecarboxylic acid [2-((R)-indan-1-ylamino)-4H-benzo[d][1,3]oxazin-6-yl]-amide] | 0.83 nM |
| O=C(CN1CCOCC1)Nc1ccc2c(c1)COC(NC1CCOc3ccccc31)=N2 (racemic) [Example 121, N-[2-(Chroman-4-ylamino)-4H-benzo[d][1,3]oxazin-6-yl]-2-morpholin-4-yl-acetamide] | 135 nM |
| O=C(Nc1ccc2c(c1)COC(NCCOc1ccccc1)=N2)C1CC1 [Example 96, Cyclopropanecarboxylic acid [2-(2-phenoxy-ethylamino)-4H-benzo[d][1,3]oxazin-6-yl]-amide] | 3.3 nM |
| O=S(=O)(Nc1ccc2c(c1)COC(Nc1cccc(C3CC3)c1)=N2)c1ccccc1 [Example 150, N-[2-(3-Cyclopropyl-phenylamino)-4H-benzo[d][1,3]oxazin-6-yl]-benzenesulfonamide] | 299 nM |
| COc1cccc2c1C(NC1=Nc3ccc(NC(=O)CN4CCOCC4)cc3CO1)CC2 (racemic) [Example 55, rac-N-[2-(7-Methoxy-indan-1-ylamino)-4H-benzo[d][1,3]oxazin-6-yl]-2-morpholin-4-yl-acetamide] | 10.3 nM |
| COc1ccccc1CNC1=Nc2ccc(NC(=O)CN3CCN(CCO)CC3)cc2CO1 [Example 28, 2-[4-(2-Hydroxy-ethyl)-piperazin-1-yl]-N-[2-(2-methoxy-benzylamino)-4H-benzo[d][1,3]oxazin-6-yl]-acetamide] | 10.2 nM |
| FC(F)(F)c1ccnc(Nc2ccc3c(c2)COC(N[C@@H]2CCc4ccccc42)=N3)n1 [Example 46, N^2-(R)-Indan-1-yl-N^6-(4-trifluoromethyl-pyrimidin-2-yl)-4H-benzo[d][1,3]oxazine-2,6-diamine] | 7.1 nM |

| SMILES | Ki |
| --- | --- |
| COCC(=O)Nc1ccc2c(c1)COC(NC1COc3cccc(OC)c31)=N2 (racemic) [Example 17, rac-2-Methoxy-N-[2-(4-methoxy-2,3-dihydro-benzofuran-3-ylamino)-4H-benzo[d][1,3]oxazin-6-yl]-acetamide] | 26.1 nM |
| c1cc(NC2=Nc3ccc(NCc4nccs4)cc3CO2)cc(C2CC2)c1 [Example 127, N^2-(3-Cyclopropyl-phenyl)-N^6-thiazol-2-ylmethyl-4H-benzo[d][1,3]oxazine-2,6-diamine] | 37.9 nM |
| O=C(CN1CCOCC1)Nc1ccc2c(c1)COC(N[C@@H]1CCCc3ccccc31)=N2 [Example 39, 2-Morpholin-4-yl-N-{2-[(R)-(1,2,3,4-tetrahydro-naphthalen-1-yl)amino]-4H-benzo[d][1,3]oxazin-6-yl}-acetamide] | 22.8 nM |
| COc1cccc2c1C(NC1=Nc3ccc(NS(C)(=O)=O)cc3CO1)CO2 (racemic) [Example 114, rac-N-[2-(4-Methoxy-2,3-dihydro-benzofuran-3-ylamino)-4H-benzo[d][1,3]oxazin-6-yl]-methanesulfonamide] | 30.4 nM |
| O=C(Cn1ccnc1)Nc1ccc2c(c1)COC(N[C@@H]1CCc3ccccc31)=N2 [Example 67, 2-Imidazol-1-yl-N-[2-((R)-indan-1-ylamino)-4H-benzo[d][1,3]oxazin-6-yl]-acetamide] | 7.42 nM |
| COc1cccc2c1C(NC1=Nc3ccc(Nc4cccc(C(F)(F)F)n4)cc3CO1)CC2 (racemic) [Example 80, rac-N^2-(7-Methoxy-indan-1-yl)-N^6-(6-trifluoromethyl-pyridin-2-yl)-4H-benzo[d][1,3]oxazine-2,6-diamine] | 4.26 nM |
| O=S(=O)(Nc1ccc2c(c1)COC(NCCOc1ccccc1)=N2)C1CC1 [Example 108, Cyclopropanesulfonic acid [2-(2-phenoxy-ethylamino)-4H-benzo[d][1,3]oxazin-6-yl]-amide] | 29.1 nM |
| C=Cc1ccc2c(c1)COC(N[C@@H]1CCc3ccccc31)=N2 [Example 134, (R)-Indan-1-yl-(6-vinyl-4H-benzo[d][1,3]oxazin-2-yl)-amine] | 13.5 nM |
| N#Cc1ccc2c(c1)COC(N[C@@H]1CCc3ccccc31)=N2 [Example 117, 2-((R)-Indan-1-ylamino)-4H-benzo[d][1,3]oxazine-6-carbonitrile] | 15.7 nM |
| CN1CCN(CC(=O)Nc2ccc3c(c2)COC(NC2COc4cc(F)ccc42)=N3)CC1 (racemic) [Example 44, rac-N-[2-(6-Fluoro-2,3-dihydro-benzofuran-3-ylamino)-4H-benzo[d][1,3]oxazin-6-yl]-2-(4-methyl-piperazin-1-yl)-acetamide] | 6.5 nM |
| O=S(=O)(Nc1ccc2c(c1)COC(N[C@@H]1CCc3ccccc31)=N2)C1CC1 [Example 79, Cyclopropanesulfonic acid [2-((R)-indan-1-ylamino)-4H-benzo[d][1,3]oxazin-6-yl]-amide] | 1.81 nM |
| COc1ccccc1CNC1=Nc2ccc([N+](=O)[O-])cc2CO1 [Example 1, (2-Methoxy-benzyl)-(6-nitro-4H-benzo[d][1,3]oxazin-2-yl)-amine] | 390 nM |
| O=S(=O)(Nc1ccc2c(c1)COC(N[C@@H]1CCc3ccccc31)=N2)c1ccccc1 [Example 83, N-[2-((R)-Indan-1-ylamino)-4H-benzo[d][1,3]oxazin-6-yl]-benzenesulfonamide] | 3.69 nM |
| COc1ccccc1CNC1=Nc2ccc(NC(=O)C3CC3)cc2CO1 [Example 7, Cyclopropanecarboxylic acid [2-(2-methoxy-benzylamino)-4H-benzo[d][1,3]oxazin-6-yl]-amide] | 2.98 nM |
| CN(C)S(=O)(=O)Nc1ccc2c(c1)COC(NC1CCc3cc(F)ccc31)=N2 (racemic) [Example 64, rac-N,N-(Dimethyl)-N′-{2-(5-Fluoro-indan-1-ylamino)-4H-benzo[d][1,3]oxazin-6-yl}-sulfamide] | 4.08 nM |
| O=C(Nc1ccc2c(c1)COC(NC1CCc3cc(F)ccc31)=N2)C1CC1 (racemic) [Example 20, rac-Cyclopropanecarboxylic acid [2-(5-fluoro-indan-1-ylamino)-4H-benzo[d][1,3]oxazin-6-yl]-amide] | 1.36 nM |
| CC(C)N1C2CCC1CC(NCC(=O)Nc1ccc3c(c1)COC(N[C@@H]1CCCc4ccccc41)=N3)C2 (stereo partly drawn) [Example 73, 2-((exo)-8-Isopropyl-8-aza-bicyclo[3.2.1]oct-3-ylamino)-N-{2-[(R)-(1,2,3,4-tetrahydro-naphthalen-1-yl)amino]-4H-benzo[d][1,3]oxazin-6-yl}-acetamide] | 61.3 nM |
